Experiments:
[1] = target: T1, peanut agglutinin (PNA) lectin (Arachis hypogaea, UniProt P02872); experiment: PNA lectin binding to glycan array on polystyrene polymer slides; settings: PNA 10 μg/ml, PAMAM G3 NHS, Cy5 labeled streptavidin
T1 sequence (P02872 24-273): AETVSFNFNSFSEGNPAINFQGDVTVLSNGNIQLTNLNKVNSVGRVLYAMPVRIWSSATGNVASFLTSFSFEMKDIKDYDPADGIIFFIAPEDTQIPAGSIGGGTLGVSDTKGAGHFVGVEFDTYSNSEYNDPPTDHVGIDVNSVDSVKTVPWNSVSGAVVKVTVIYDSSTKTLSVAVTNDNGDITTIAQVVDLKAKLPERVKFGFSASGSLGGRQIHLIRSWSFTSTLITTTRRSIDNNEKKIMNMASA
From the text: (§1) (PAMAM) dendrimer generation 3 functionalized with N-hydroxysuccinimide (NHS) groups (Example 5). The glycan array was fabricated same as described in Example 7. Biotinylated lectins (e.g., SBA, FIG. 7; PNA, FIG. 8; and ConA, FIG. 9) were used for examine the binding on the glycan array by detection with a Cy5 labeled streptavidin.

[2] = target: T2, Soybean agglutinins (SBA) lectin (Glycine max, UniProt P05046); experiment: SBA lectin binding to O-mucin glycan microarray (NHS PAMAM G2 glass slide); settings: SBA 1 μg/ml; O-mucin glycan microarray on glass; Cy3 labeled streptavidin
Experimental: For this purpose, a library containing 12 glycan probes representing 0-GalNAc glycan structures in mucin (Table 2) was immobilized onto a glass slide coated with PAMAM dendrimer (generation 2) terminated with NHS functional groups (Example 1). Each glycan was dissolved in a Print Buffer containing 150 mM sodium phosphate, (pH 8.5) with 100 μM concentration and printed onto the slides using ˜1 nL probe. The printing process was performed in 60% relative humidity. After printing the glycan immobilization can be enhanced by incubation at room temperature for 12 hours in 60% relative humidity.
The carbohydrate-protein interaction can be investigated by interrogating the microarray with lectins or glycan-binding proteins. In detail, first the arrayed slides were briefly rinsed in MilliQ water and then affixed into an assay chamber. The arrays were treated with a blocking buffer, such as 25 mM ethanolamine in 100 mM boric acid, 0.01% Tween 20 (pH 8.5). A biotinylated lectin (e.g., Helix pomatia Agglutinin (HPA)) or a glycan-binding protein dissolved in an Assay Buffer was subjected to the array for incubation. The Assay Buffer could be 20 mM Tris-HCl, 150 mM NaCl, 0.05% Tween 20, 1 mM CaCl2), 1 mM MgCl2, 1% BSA (pH 7.6). The protein-carbohydrate binding was detected by applying a Cy3 labeled streptavidin. The binding intensities—relative fluorescence units (RFU)—were quantified by using a fluorescence-based microarray scanner (FIG. 6).

[3] = target: T2, Soybean agglutinins (SBA) lectin; experiment: SBA lectin binding to glycan array on polystyrene polymer slides; settings: SBA 10 μg/ml, PAMAM G3 NHS, Cy5 labeled streptavidin
From the text: as §1

[4] = test system: HIV broadly neutralizing antibody 2G12; experiment: 2G12 antibody binding to high-mannose N-glycans on hydrazide substrate with or without aniline; settings: aniline-coated substrate
From the text: 2G12 is pre-complexed with Cy3 labeled anti-Human IgG (1:4 ratio). […] 2G12 is pre-complexed with Cy3 labeled anti-Human IgG (1:4 ratio). […] CD15 antibody is detected with Alexa Fluor 555-labeled anti-mouse IgM secondary antibody. […] The aniline can serve as a catalyst to increase aldehyde-hydrazide coupling efficiency, thus enhance the immobilization capability for glycans containing free reducing-end. The use of aniline as a nucleophilic catalyst accelerates bond formation through a Schiff base intermediate (mechanism in FIG. 4D).

T2 sequence (P05046 33-285): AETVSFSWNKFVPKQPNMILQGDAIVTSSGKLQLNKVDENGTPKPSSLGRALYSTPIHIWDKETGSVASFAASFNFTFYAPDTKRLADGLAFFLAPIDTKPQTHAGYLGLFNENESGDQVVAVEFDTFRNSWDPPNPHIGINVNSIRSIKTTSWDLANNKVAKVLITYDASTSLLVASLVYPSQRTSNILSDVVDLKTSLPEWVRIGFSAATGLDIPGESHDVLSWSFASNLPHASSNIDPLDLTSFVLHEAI

CC(=O)NC1C(OCC(N)C(=O)O)OC(CO)C(O)C1OC1OC(CO)C(O)C(O)C1O (stereo not drawn) [T-Ser, Galβ1-3GalNAcα1-Ser]
binding to PNA lectin [1]: specific binding

CC(=O)NC1C(OC(C)C(N)C(=O)O)OC(CO)C(O)C1OC1OC(CO)C(O)C(O)C1O (stereo not drawn) [T-Thr, Galβ1-3GalNAcα1-Thr]
binding to PNA lectin [1]: specific binding

CC(=O)N[C@H]1[C@@H](OC[C@H](N)C(=O)O)O[C@H](CO)[C@H](O)[C@@H]1O [Tn-Ser, α-GalNAc-Ser]
binding to SBA lectin [2]: specific binding

CC(=O)N[C@H]1[C@@H](O[C@H](C)[C@H](N)C(=O)O)O[C@H](CO)[C@H](O)[C@@H]1O [Tn-Thr, α-GalNAc-Thr]
binding to SBA lectin [2]: specific binding
binding to SBA lectin [3]: specific binding

H2N-APGST*APP-NH2 (*α-GalNAc)
binding to SBA lectin [2]: specific binding
binding to SBA lectin [3]: specific binding

H2N-TSAPDT*RPAP-NH2 (*α-GalNAc)
binding to SBA lectin [2]: specific binding

[Manα1-2] [Manα1-2] Manα1-6(Manα1-3)Manα1-6(Manα1-2Manα1-3)Manβ1-4GlcNAcβ1-4GlcNAc-(3 isomers) [Glycan 90]
binding to 2G12 antibody [4]: specific binding

Reference: patent publication US11656224B2, “Multivalent glycan microarray platform” (Z Biotech, LLC, priority 2016, dated 2023)
